pIC50: −log10 of the molar value. Calls of active or inactive are those of the source. The calls are words filed in the database; no cut-off is given here.
What was measured:
[1] = system: HCT-116; experiment: Cell cycle arrest in human HCT116 cells assessed as accumulation at sub-G1 phase at 20 uM after 48 hrs by propidium iodide staining-based flow cytometric analysis (reference value: 2.9%); format: functional
[2] = system: HCT-116; experiment: Cytotoxicity against human HCT116 cells assessed as cell survival at 0.5 to 5 uM after 7 days by crystal violet staining assay; format: functional, cell-based; settings: HCT-116, 168 h
[3] = biological target: T1, Aurora kinase A (Homo sapiens) (UniProt O14965); experiment: Inhibition of human aurora-A; settings: concentration not given here
T1 sequence (whole entry): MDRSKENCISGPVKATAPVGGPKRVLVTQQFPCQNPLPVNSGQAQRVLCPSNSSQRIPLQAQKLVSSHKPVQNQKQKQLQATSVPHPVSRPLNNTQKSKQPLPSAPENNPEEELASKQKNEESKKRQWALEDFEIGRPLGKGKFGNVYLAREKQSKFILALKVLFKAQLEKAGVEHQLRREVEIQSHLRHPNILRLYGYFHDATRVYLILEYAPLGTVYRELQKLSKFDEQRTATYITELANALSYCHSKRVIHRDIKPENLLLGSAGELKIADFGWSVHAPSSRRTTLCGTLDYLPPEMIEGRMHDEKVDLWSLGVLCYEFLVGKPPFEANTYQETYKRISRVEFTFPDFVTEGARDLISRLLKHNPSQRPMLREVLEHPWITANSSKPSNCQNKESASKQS

[4] = system: HCT-116; experiment: Cell cycle arrest in human HCT116 cells assessed as accumulation at G1 phase at 20 uM after 48 hrs by propidium iodide staining-based flow cytometric analysis (reference value: 2.9%); format: functional
[5] = biological target: RAF proto-oncogene serine/threonine-protein kinase (Homo sapiens) (UniProt P04049); experiment: Inhibition of human c-RAF
Sequence of RAF proto-oncogene serine/threonine-protein kinase (Homo sapiens) (P04049 whole entry): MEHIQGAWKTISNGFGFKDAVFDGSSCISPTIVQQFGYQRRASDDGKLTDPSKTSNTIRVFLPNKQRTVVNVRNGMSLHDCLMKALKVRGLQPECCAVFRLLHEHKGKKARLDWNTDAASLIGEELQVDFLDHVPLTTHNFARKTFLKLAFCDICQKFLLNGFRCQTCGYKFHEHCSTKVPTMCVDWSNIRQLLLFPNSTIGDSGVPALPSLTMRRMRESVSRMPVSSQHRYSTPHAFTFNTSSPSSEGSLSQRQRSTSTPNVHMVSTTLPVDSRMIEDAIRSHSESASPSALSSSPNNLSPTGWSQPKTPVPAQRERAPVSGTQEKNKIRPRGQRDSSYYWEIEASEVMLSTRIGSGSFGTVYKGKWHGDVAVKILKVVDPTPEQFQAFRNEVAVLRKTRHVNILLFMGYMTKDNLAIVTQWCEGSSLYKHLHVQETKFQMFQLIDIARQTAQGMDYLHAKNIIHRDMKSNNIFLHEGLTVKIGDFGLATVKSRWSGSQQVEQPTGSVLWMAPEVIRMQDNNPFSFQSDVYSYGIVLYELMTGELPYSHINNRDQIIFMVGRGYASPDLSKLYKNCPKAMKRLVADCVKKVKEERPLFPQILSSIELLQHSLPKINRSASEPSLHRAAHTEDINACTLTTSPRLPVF

[6] = biological target: [Pyruvate dehydrogenase (acetyl-transferring)] kinase isozyme 1, mitochondrial (Homo sapiens) (UniProt Q15118); experiment: Inhibition of human PDK1
[7] = system: HCT-116; experiment: Cell cycle arrest in human HCT116 cells assessed as accumulation at G1 phase at 20 uM after 24 hrs by propidium iodide staining-based flow cytometric analysis (reference value: 2.9%); format: functional
[8] = system: HCT-116; experiment: Induction of apoptosis in human HCT116 cells assessed as DNA content at sub-G1 phase at 20 uM after 24 hrs by annexin V-FITC/propidium iodide staining-based flow cytometric analysis (reference value: 92%); format: functional
[9] = biological target: T2, Interleukin-1 receptor-associated kinase 4 (Homo sapiens) (UniProt Q9NWZ3); experiment: Inhibition of human IRAK4
T2 sequence (whole entry): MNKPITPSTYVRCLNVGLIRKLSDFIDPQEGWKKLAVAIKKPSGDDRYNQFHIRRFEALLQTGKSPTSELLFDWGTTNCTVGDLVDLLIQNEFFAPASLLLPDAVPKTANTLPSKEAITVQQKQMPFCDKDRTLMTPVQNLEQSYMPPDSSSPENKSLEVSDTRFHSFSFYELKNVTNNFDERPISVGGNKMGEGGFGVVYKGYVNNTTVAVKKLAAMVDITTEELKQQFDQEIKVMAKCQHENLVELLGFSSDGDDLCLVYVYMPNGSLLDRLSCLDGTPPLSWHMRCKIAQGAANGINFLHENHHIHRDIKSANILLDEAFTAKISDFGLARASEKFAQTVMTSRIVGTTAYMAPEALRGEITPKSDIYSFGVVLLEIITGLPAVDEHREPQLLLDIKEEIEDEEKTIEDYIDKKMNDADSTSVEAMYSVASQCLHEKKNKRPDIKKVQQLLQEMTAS

[10] = system: HCT-116; experiment: Cell cycle arrest in human HCT116 cells assessed as accumulation at G2/M phase at 20 uM after 48 hrs by propidium iodide staining-based flow cytometric analysis (reference value: 2.9%); format: functional
[11] = system: HCT-116; experiment: Induction of apoptosis in human HCT116 cells assessed as early apoptotic cells at 20 uM after 24 hrs by annexin V-FITC/propidium iodide staining-based flow cytometric analysis (reference value: 22%); format: functional
[12] = biological target: T3, Discoidin domain-containing receptor 2 (Homo sapiens) (UniProt Q16832); experiment: Inhibition of human DDR2
T3 sequence (whole entry): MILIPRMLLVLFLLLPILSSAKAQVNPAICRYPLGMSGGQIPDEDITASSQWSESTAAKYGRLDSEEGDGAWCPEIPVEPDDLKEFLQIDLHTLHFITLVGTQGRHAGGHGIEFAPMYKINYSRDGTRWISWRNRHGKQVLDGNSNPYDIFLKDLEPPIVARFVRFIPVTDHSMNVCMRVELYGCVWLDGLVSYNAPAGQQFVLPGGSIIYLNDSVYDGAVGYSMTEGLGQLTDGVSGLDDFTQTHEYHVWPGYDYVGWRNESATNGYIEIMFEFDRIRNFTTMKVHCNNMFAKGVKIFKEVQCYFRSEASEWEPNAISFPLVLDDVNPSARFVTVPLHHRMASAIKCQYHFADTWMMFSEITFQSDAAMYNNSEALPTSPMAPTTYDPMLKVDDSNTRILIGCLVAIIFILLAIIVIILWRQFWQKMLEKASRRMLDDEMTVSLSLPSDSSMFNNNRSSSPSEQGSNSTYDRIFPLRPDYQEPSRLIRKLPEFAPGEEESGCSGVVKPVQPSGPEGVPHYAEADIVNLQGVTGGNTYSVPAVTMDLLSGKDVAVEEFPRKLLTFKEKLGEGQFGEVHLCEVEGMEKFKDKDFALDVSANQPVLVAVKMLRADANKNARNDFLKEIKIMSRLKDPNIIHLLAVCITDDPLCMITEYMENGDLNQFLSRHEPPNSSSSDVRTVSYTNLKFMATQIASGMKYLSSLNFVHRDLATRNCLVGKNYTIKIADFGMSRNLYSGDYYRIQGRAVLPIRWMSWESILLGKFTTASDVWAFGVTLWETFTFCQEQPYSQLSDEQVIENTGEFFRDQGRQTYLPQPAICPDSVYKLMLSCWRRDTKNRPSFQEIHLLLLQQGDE

[13] = system: HCT-116; experiment: Induction of apoptosis in human HCT116 cells assessed as viable cells at 20 uM after 24 hrs by annexin V-FITC/propidium iodide staining-based flow cytometric analysis (reference value: 71 %); format: functional; settings: HCT-116, 24 h, read-out: Activity
[14] = system: HCT-116; experiment: Cytotoxicity against human HCT116 cells assessed as cell survival at 5 to 40 uM after 7 days by crystal violet staining assay; format: functional, cell-based; settings: HCT-116, 168 h
[15] = system: HCT-116; experiment: Cell cycle arrest in human HCT116 cells assessed as accumulation at sub-G1 phase at 20 uM after 24 hrs by propidium iodide staining-based flow cytometric analysis (reference value: 2.9%); format: functional
[16] = system: HCT-116; experiment: Cell cycle arrest in human HCT116 cells assessed as accumulation at S phase at 20 uM after 48 hrs by propidium iodide staining-based flow cytometric analysis (reference value: 2.9%); format: functional
[17] = system: HCT-116; experiment: Induction of apoptosis in human HCT116 cells assessed as PARP cleavage at 20 uM after 24 to 48 hrs by Western blot analysis; format: functional, cell-based
[18] = system: HCT-116; experiment: Cell cycle arrest in human HCT116 cells assessed as accumulation at G2/M phase at 20 uM after 12 hrs by propidium iodide staining-based flow cytometric analysis (reference value: 20.8%); format: functional
[19] = biological target: Vascular endothelial growth factor receptor 2 (Homo sapiens) (UniProt P35968); experiment: Inhibition of human KDR
Sequence of Vascular endothelial growth factor receptor 2 (Homo sapiens) (P35968 whole entry): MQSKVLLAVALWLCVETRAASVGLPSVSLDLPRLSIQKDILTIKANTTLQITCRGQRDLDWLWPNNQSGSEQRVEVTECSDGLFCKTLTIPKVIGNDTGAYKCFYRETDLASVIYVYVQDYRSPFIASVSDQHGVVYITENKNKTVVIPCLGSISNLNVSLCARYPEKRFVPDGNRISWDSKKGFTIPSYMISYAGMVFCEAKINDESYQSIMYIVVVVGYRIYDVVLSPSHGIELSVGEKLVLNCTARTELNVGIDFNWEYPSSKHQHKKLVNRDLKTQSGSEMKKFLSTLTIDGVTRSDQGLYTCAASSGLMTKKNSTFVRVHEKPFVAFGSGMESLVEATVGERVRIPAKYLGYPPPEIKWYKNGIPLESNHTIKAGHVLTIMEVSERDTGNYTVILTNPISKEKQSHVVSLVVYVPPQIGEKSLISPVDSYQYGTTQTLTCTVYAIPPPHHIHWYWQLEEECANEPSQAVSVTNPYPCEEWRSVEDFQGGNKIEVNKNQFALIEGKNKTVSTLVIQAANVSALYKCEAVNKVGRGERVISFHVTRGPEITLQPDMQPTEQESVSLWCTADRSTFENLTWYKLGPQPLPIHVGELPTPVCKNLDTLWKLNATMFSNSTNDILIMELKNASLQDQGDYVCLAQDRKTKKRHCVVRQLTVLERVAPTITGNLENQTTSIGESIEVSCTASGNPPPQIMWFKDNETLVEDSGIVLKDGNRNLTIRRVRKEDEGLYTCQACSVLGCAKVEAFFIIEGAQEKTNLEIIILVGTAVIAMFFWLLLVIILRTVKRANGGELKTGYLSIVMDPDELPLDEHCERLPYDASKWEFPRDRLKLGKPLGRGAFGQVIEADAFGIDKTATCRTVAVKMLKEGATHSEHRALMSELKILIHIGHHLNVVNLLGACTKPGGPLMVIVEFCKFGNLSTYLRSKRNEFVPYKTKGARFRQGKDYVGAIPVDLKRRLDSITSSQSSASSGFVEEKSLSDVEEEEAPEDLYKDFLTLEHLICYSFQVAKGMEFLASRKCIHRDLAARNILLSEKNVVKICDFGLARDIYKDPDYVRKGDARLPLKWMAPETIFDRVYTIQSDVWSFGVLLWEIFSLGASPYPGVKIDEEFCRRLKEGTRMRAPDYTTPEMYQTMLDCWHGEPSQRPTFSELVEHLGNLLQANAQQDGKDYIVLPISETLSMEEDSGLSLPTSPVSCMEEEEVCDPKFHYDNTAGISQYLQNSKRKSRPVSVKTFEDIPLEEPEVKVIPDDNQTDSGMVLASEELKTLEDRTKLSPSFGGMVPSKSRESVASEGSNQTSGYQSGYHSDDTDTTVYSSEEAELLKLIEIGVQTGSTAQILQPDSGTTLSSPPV

Structure (SMILES): COc1ccc2c(c1)C=C(C(=O)/C=C/c1c(OC)cc(OC)cc1OC)CO2
- Activity [1]: 45.3%
- pIC50 [2]: 7.01
- inhibition [3]: 69%
- Activity [4]: 29.5%
- inhibition [5]: inactive
- inhibition [6]: inactive
- Activity [7]: 23.1%
- Activity [8]: 1%
- inhibition [9]: inactive
- Activity [10]: 8.4%
- Activity [11]: 86%
- inhibition [12]: inactive
- viability at 20 µM [13]: 0%
- pIC50 [14]: 7.03
- Activity [15]: 35.3%
- Activity [16]: 13.2%
- Activity [17]: Active
- Activity [18]: 44.2%
- inhibition [19]: inactive

From ChEMBL document CHEMBL2396526, “Chromenylchalcones showing cytotoxicity on human colon cancer cell lines and in silico docking with aurora kinases” (Bioorg Med Chem, 2013)
